Results published in patent US20220153745A1, “DISUBSTITUTED BENZOTHIENYL-PYRROLOTRIAZINES AND THEIR USE AS FGFR KINASE INHIBITORS” (Bayer Intellectual Property GmbH, priority 2011, published 2022).
Structures can show the parent of a compound that is named as a salt.

Key:
mTOR = molecular target: T1, mTOR (Homo sapiens, UniProt P42345); assay: mTOR kinase assay (TR-FRET, for comparative purposes); format: biochemical; settings: for inhibition at 1 µM: read-out: mTOR % inhibition @ 1 μM, mean inhibition at 1 μM test compound, 40 μM ATP; for mTOR % inhibition @ 1 μM: mean inhibition at 1 μM test compound, 40 μM ATP
T1 construct: human mTOR amino acids from 1360 to 2549; purchased Invitrogen 4753; host or cells: insect cells

[1] = system: Human umbilical vein endothelial cells (HUVEC); assay: Inhibition of hFGF-2 mediated HUVEC proliferation; format: cell-based; settings: 72 h

T1 sequence (P42345 1360-2549): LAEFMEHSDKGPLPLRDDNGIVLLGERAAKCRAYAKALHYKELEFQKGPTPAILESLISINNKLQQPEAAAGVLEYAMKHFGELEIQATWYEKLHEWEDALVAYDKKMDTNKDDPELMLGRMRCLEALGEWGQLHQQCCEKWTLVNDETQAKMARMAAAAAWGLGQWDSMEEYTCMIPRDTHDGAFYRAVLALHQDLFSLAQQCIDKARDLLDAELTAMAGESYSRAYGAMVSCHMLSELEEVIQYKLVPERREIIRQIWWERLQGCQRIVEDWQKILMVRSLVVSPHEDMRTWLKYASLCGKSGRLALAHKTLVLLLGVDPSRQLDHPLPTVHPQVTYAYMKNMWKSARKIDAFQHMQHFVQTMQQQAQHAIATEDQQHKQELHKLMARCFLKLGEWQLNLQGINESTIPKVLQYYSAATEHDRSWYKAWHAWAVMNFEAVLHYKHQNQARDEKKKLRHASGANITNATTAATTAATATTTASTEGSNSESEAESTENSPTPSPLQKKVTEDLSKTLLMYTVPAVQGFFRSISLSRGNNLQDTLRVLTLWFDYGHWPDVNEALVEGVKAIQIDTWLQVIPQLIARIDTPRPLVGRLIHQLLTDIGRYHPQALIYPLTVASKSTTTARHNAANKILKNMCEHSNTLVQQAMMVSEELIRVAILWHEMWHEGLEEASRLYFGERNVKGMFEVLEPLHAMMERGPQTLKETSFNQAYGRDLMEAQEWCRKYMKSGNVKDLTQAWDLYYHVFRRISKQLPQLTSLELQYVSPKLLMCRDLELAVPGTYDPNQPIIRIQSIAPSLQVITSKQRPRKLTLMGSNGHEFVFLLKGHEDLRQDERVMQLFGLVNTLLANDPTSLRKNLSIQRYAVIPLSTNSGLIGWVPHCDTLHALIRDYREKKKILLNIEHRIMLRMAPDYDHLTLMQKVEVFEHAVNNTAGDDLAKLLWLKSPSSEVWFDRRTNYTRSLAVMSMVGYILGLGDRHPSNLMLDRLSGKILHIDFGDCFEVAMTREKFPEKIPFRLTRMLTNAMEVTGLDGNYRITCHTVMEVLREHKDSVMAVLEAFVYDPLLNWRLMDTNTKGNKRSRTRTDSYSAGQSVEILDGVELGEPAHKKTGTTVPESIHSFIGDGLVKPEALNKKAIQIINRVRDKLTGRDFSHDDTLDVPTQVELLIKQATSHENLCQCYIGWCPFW

SMILES | inhibition at 1 µM (mTOR) [%] | IC50 [1] [nM] | mTOR % inhibition @ 1 μM (mTOR) [%]
COc1cc(C)cc2cc(-c3c(CNCC(C)O)c(CN4CCOCC4)n4ncnc(N)c34)sc12 (racemic) [Example 53, rac-1-({[4-Amino-5-(7-methoxy-5-methyl-1-benzothiophen-2-yl)-7-(morpholin-4-ylmethyl)pyrrolo[2,1-f][1,2,4]triazin-6-yl]methyl}amino)propan-2-ol] | 3.3 | 3.3 | –
COc1cc(C)cc2cc(-c3c(CO)c(CN4CCNC(=O)C4)n4ncnc(N)c34)sc12 [Example 13, 4-{[4-Amino-6-(hydroxymethyl)-5-(7-methoxy-5-methyl-1-benzothiophen-2-yl)pyrrolo[2,1-f][1,2,4]-triazin-7-yl]methyl}piperazin-2-one] | 14.9 | 17 | –
COc1cc(C)cc2cc(-c3c(COCCO)c(CN4CCNC(=O)C4)n4ncnc(N)c34)sc12 [Example 21, 4-({4-Amino-6-[(2-hydroxyethoxy)methyl]-5-(7-methoxy-5-methyl-1-benzothiophen-2-yl)pyrrolo[2,1-f][1,2,4]triazin-7-yl}methyl)piperazin-2-one formiate] | 5 | 3.7 | –
COc1cc(C)cc2cc(-c3c(COC4CCC4)c(CN4CCNCC4)n4ncnc(N)c34)sc12 [Example 26, 6-[(Cyclobutyloxy)methyl]-5-(7-methoxy-5-methyl-1-benzothiophen-2-yl)-7-(piperazin-1-ylmethyl)pyrrolo[2,1-f][1,2,4]triazin-4-amine] | 6.8 | 56.7 | –
COc1cc(C)cc2cc(-c3c(COCC(N)=O)c(CN4CCN(C(C)=O)CC4)n4ncnc(N)c34)sc12 [Example 34, 2-({7-[(4-Acetylpiperazin-1-yl)methyl]-4-amino-5-(7-methoxy-5-methyl-1-benzothiophen-2-yl)pyrrolo[2,1-f][1,2,4]triazin-6-yl}methoxy)acetamide] | 25.9 | 37.3 | –
CNCc1c(-c2cc3cc(C)cc(OC)c3s2)c2c(N)ncnn2c1CN1CCNCC1 [Example 36, 5-(7-Methoxy-5-methyl-1-benzothiophen-2-yl)-6-[(methylamino)methyl]-7-(piperazin-1-ylmethyl)pyrrolo[2,1-f][1,2,4]triazin-4-amine trihydrochloride] | 14.4 | – | –
COc1cc(C)cc2cc(-c3c(CN(C)C)c(CN4CCNCC4)n4ncnc(N)c34)sc12 [Example 37, 6-[(Dimethylamino)methyl]-5-(7-methoxy-5-methyl-1-benzothiophen-2-yl)-7-(piperazin-1-ylmethyl)pyrrolo[2,1-f][1,2,4]triazin-4-amine trihydrochloride] | 8.6 | – | –
CCN(CC)Cc1c(-c2cc3cc(C)cc(OC)c3s2)c2c(N)ncnn2c1CN1CCNCC1 [Example 43, 6-[(Diethylamino)methyl]-5-(7-methoxy-5-methyl-1-benzothiophen-2-yl)-7-(piperazin-1-ylmethyl)pyrrolo[2,1-f][1,2,4]triazin-4-amine trihydrochloride] | 10.1 | – | –
COc1cc(C)cc2cc(-c3c(CNCC(=O)O)c(CN4CCNCC4)n4ncnc(N)c34)sc12 [Example 48, N-{[4-Amino-5-(7-methoxy-5-methyl-1-benzothiophen-2-yl)-7-(piperazin-1-ylmethyl)pyrrolo[2,1-f]-[1,2,4]triazin-6-yl]methyl}glycine trihydrochloride] | 4.1 | – | –
COc1cc(C)cc2cc(-c3c(CN[C@H]4CCNC4=O)c(CN4CCOCC4)n4ncnc(N)c34)sc12 [Example 51, (3S)-3-({[4-Amino-5-(7-methoxy-5-methyl-1-benzothiophen-2-yl)-7-(morpholin-4-ylmethyl)pyrrolo[2,1-f][1,2,4]triazin-6-yl]methyl}amino)pyrrolidin-2-one] | 8.4 | 1.2 | –
COc1cc(C)cc2cc(-c3c(CN4CCNC(=O)C4)c(CN4CCOCC4)n4ncnc(N)c34)sc12 [Example 52, 4-{[4-Amino-5-(7-methoxy-5-methyl-1-benzothiophen-2-yl)-7-(morpholin-4-ylmethyl)pyrrolo[2,1-f][1,2,4]triazin-6-yl]methyl}piperazin-2-one] | 4.2 | 4 | –
COc1cc(C)cc2cc(-c3c(CNCC(C)(C)O)c(CN4CCOCC4)n4ncnc(N)c34)sc12 [Example 54, 1-({[4-Amino-5-(7-methoxy-5-methyl-1-benzothiophen-2-yl)-7-(morpholin-4-ylmethyl)pyrrolo[2,1-f][1,2,4]triazin-6-yl]methyl}amino)-2-methylpropan-2-ol] | 1.7 | 2.2 | –
COc1cc(C)cc2cc(-c3c(CN[C@@H]4CCNC4=O)c(CN4CCN(C(C)=O)CC4)n4ncnc(N)c34)sc12 [Example 56, (3R)-3-[({7-[(4-Acetylpiperazin-1-yl)methyl]-4-amino-5-(7-methoxy-5-methyl-1-benzothiophen-2-yl)pyrrolo[2,1-f][1,2,4]triazin-6-yl}methyl)amino]pyrrolidin-2-one] | 16.1 | 18.1 | –
COc1cc(C)cc2cc(-c3c(CN4CCNC(=O)C4)c(CN4CCN(C=O)CC4)n4ncnc(N)c34)sc12 [Example 58, 4-({4-Amino-5-(7-methoxy-5-methyl-1-benzothiophen-2-yl)-6-[(3-oxopiperazin-1-yl)methyl]pyrrolo[2,1-f][1,2,4]triazin-7-yl}methyl)piperazine-1-carbaldehyde formiate] | 4 | – | –
COc1cc(C)cc2cc(-c3c(CNC(C)=O)c(CN4CCN(C=O)CC4)n4ncnc(N)c34)sc12 [Example 65, N-({4-Amino-7-[(4-formylpiperazin-1-yl)methyl]-5-(7-methoxy-5-methyl-1-benzothiophen-2-yl)pyrrolo[2,1-f][1,2,4]triazin-6-yl}methyl)acetamide formiate] | 13.9 | – | –
COc1cc(C)cc2cc(-c3c(CNC(C)=O)c(CN4CCN(C(C)=O)CC4)n4ncnc(N)c34)sc12 [Example 66, N-({7-[(4-Acetylpiperazin-1-yl)methyl]-4-amino-5-(7-methoxy-5-methyl-1-benzothiophen-2-yl)pyrrolo[2,1-f][1,2,4]triazin-6-yl}methyl)acetamide] | 15.8 | – | –
COCc1c(-c2cc3cc(C)cc(OC)c3s2)c2c(N)ncnn2c1C#N [Example 69, 4-Amino-6-(methoxymethyl)-5-(7-methoxy-5-methyl-1-benzothiophen-2-yl)pyrrolo[2,1-f][1,2,4]-triazine-7-carbonitrile] | 8.7 | – | –
CCOCc1c(-c2cc3cc(C)cc(OC)c3s2)c2c(N)ncnn2c1C#N [Example 70, 4-Amino-6-(ethoxymethyl)-5-(7-methoxy-5-methyl-1-benzothiophen-2-yl)pyrrolo[2,1-f][1,2,4]-triazine-7-carbonitrile] | 5.8 | – | –
COc1cc(C)cc2cc(-c3c(CN4CCNC(=O)C4)c(C#N)n4ncnc(N)c34)sc12 [Example 71, 4-Amino-5-(7-methoxy-5-methyl-1-benzothiophen-2-yl)-6-[(3-oxopiperazin-1-yl)methyl]pyrrolo[2,1-f][1,2,4]triazine-7-carbonitrile] | 0.1 | – | –
COc1cc(C)cc2cc(-c3c(CNCC(C)(C)O)c(C)n4ncnc(N)c34)sc12 [Example 78, 1-({[4-Amino-5-(7-methoxy-5-methyl-1-benzothiophen-2-yl)-7-methylpyrrolo[2,1-f][1,2,4]triazin-6-yl]methyl}amino)-2-methylpropan-2-ol] | – | – | 5.8
COc1cc(C)cc2cc(-c3c(CN4CCNC(=O)C4)c(Cl)n4ncnc(N)c34)sc12 [Example 80, 4-{[4-Amino-7-chloro-5-(7-methoxy-5-methyl-1-benzothiophen-2-yl)pyrrolo[2,1-f][1,2,4]triazin-6-yl]methyl}piperazin-2-one] | 3.9 | – | –
COc1cc(C)cc2cc(-c3c(CNCC(C)(C)O)c(Cl)n4ncnc(N)c34)sc12 [Example 82, 1-({[4-Amino-7-chloro-5-(7-methoxy-5-methyl-1-benzothiophen-2-yl)pyrrolo[2,1-f][1,2,4]triazin-6-yl]methyl}amino)-2-methylpropan-2-ol] | – | – | 7.1
CCOCc1c(-c2cc3cc(C)cc(OC)c3s2)c2c(N)ncnn2c1Cl [Example 83, 7-Chloro-6-(ethoxymethyl)-5-(7-methoxy-5-methyl-1-benzothiophen-2-yl)pyrrolo[2,1-f][1,2,4]-triazin-4-amine] | 6.3 | – | –
COc1cc(C)cc2cc(-c3c(Cl)c(CN4CCNCC4)n4ncnc(N)c34)sc12 [Example 85, 6-Chloro-5-(7-methoxy-5-methyl-1-benzothiophen-2-yl)-7-(piperazin-1-ylmethyl)pyrrolo[2,1-f]-[1,2,4]triazin-4-amine trihydrochloride] | 0.9 | – | –
CCOCc1c(-c2cc3cc(C)cc(OC)c3s2)c2c(N)ncnn2c1CN1CCNC1=O [Example 87, 1-{[4-Amino-6-(ethoxymethyl)-5-(7-methoxy-5-methyl-1-benzothiophen-2-yl)pyrrolo[2,1-f][1,2,4]-triazin-7-yl]methyl}imidazolidin-2-one] | 12.7 | – | –
COCc1c(-c2cc3cccc(OC)c3s2)c2c(N)ncnn2c1CN1CCNC(=O)C1 [Example 88, 4-{[4-Amino-5-(7-methoxy-1-benzothiophen-2-yl)-6-(methoxymethyl)pyrrolo[2,1-f][1,2,4]triazin-7-yl]methyl}piperazin-2-one] | 5.3 | – | –
CCOCc1c(-c2cc3cc(C)cc(OC)c3s2)c2c(N)ncnn2c1CN[C@H]1CCNC1=O [Example 93, (3S)-3-({[4-Amino-6-(ethoxymethyl)-5-(7-methoxy-5-methyl-1-benzothiophen-2-yl)pyrrolo[2,1-f]-[1,2,4]triazin-7-yl]methyl}amino)pyrrolidin-2-one] | 12.5 | – | –
CCOCc1c(-c2cc3cc(C)cc(OC)c3s2)c2c(N)ncnn2c1CN1CCS(=O)(=O)CC1 [Example 99] | 5.3 | – | –
CCOCc1c(-c2cc3cc(C)cc(OC)c3s2)c2c(N)ncnn2c1C(=O)NCCO [Example 108] | 8.5 | – | –
